# Patent US20080112967A1, “Process for Refining Ganoderma Spore Polysacchoride” (NANJING ZHONGKE GROUP CORP., LTD., priority 2006, published 2008)
# Key:
# [1] = tested on: mouse transplantation tumor Heps; experiment: inhibitory action of No. 1, oral pour stomach administration, on mouse transplantation tumor Heps; conditions: masculine reference, dosage 30 mg/kg, once a day, 7 times
# Experimental: (§1) 1.1 The test medicine: the reference Ganoderma spore polysaccharide (it is named No. 1), it is produced by the method disclosed in the CN1483743, the specific steps is: add Ganoderma spore powder into distilled water, the added amount can shape the Ganoderma spore, shake it up, pelletize, dry in the air, use CO2 supercritical extraction method to remove fat, weigh 10 kg Ganoderma spore which is removed fat, add it into the abstraction pot, add 150 Kg water, soak it for 2 h, heat to boil, keep reflux for 4 h, centrifuge the extracting solution, condense the filtrate to 5 Kg, add three times 95% ethanol, lay it 24 h, filter the polysaccharide precipitation, dry the precipitation so as to obtain the Ganoderma spore polysaccharide.
# (§2) 1.2 Animal:ICR mouse, 18-22 g, half male and half female, the mouses is provided by China drug section university animal laboratory. The number of certificate of conformity is: SCXK (SU)2002-0011. The feedstuff is diet pellet, it is provided by China drug section university animal laboratory. Breeding condition: air conditioning room, Temperature 18-24° C., Relative humidity: 70%.
# (§3) 1.3 Masculine Drug: endoxan (CTX), HENGRUI MEDICINE CO LTD JIANG. Specification: 200 mg/bottle, Batch Number: 06060121.
# 3.1.1 administration route: oral pour stomach (ip)
# 3.1.2 administration period: Inoculate Heps entity type by transplantation tumor methodology, after inoculating 24 h, administrate to the mouse and ip administrate, once a day, administrate for 7 times, at the next day when the administration is stopped, kill the mouse.
# (§4) 3.1.3 dosage, there are four groups:
# (§5) blank reference group(normal saline)
# (§6) 3.1.4 experimental method: Take 40 above-mentioned mouses (Heps entity type inoculated by transplantation tumor methodology), after the mouse is inoculated, weigh the mouse, and divide them into 4 groups, there is 10 mouses in every groups, half male and half female, blank reference group and CTX group are negative and masculine reference group. After inoculating 24 h, administrate to the mouse and ip administrate, once a day, administrate for 7 times, at the next day when the administration is stopped, weigh the mouses and kill them, weigh the weight of tumor, statisticaly treat the obtained data (t verify).
# [2] = tested on: mouse transplantation tumor S180; experiment: inhibitory action of No. 1, oral pour stomach administration, on mouse transplantation tumor S180; conditions: masculine reference, dosage 30 mg/kg, once a day, 7 times
# Experimental: as §1, §2, §3
# 3.2.1 administration route: oral pour stomach […]
# 3.2.2 administration period: Inoculate S180 entity type by transplantation tumor methodology, after inoculating 24 h, administrate to the mouse and ip administrate, once a day, administrate for 7 times, at the next day when the administration is stopped, kill the mouse.
# (§7) 3.2.3 dosage, there are four groups:
# as §5
# as §6, with “3.2.4” for “3.1.4”, “(S180” for “(Heps”, “t verify.” for “(t verify).”
# [3] = tested on: mouse transplantation tumor S180; experiment: inhibitory action of No. 2, intravenous injection administration, on mouse transplantation tumor S180; conditions: masculine reference, dosage 30 mg/kg, once on alternate days, 4 times
# From the text: (§8) 1.1 The test medicine: the Ganoderma spore polysaccharide of the present invention (produced by the method of the present invention, it is named No.2.).
# as §2, with “Animal: ICR” for “Animal:ICR”, “ertificate” for “certificate”, “SCXK(SU)2002-0011.” for “SCXK (SU)2002-0011.”
# (§9) 1.3 Masculine drug: endoxan (CTX), HENGRUI MEDICINE CO LTD JIANG.
# 3.2.1 administration route: intravenous injection (iv)
# 3.2.2 administration period: Inoculate S180 entity type by transplantation tumor methodology, after inoculating 24 h, administrate to the mouse and ip administrate, once on alternate days, administrate for 4 times, at the next day when the administration is stopped, kill the mouse.
# as §7
# (§10) blank reference group (normal saline)
# as §6, with “3.2.4” for “3.1.4”, “(S180” for “(Heps”, “on alternate days,” for “a day,”, “4” for “7”, “t verify.” for “(t verify).”
# [4] = tested on: mouse transplantation tumor Heps; experiment: inhibitory action of No. 2, intravenous injection administration, on mouse transplantation tumor Heps; conditions: masculine reference, dosage 30 mg/kg, once on alternate days, 4 times
# From the text: as §8
# as §2, with “Animal: ICR” for “Animal:ICR”, “ertificate” for “certificate”, “SCXK(SU)2002-0011.” for “SCXK (SU)2002-0011.”
# as §9
# 3.1 the inhibitory action of the No. 2 intravenous injection (iv) administration to the mouse transplantation tumor Heps.
# 3.1.1 administration route: intravenous injection (iv)
# 3.1.2 administration period: Inoculate Heps entity type by transplantation tumor methodology, after inoculating 24 h, administrate to the mouse and ip administrate, once on alternate days, administrate for 4 times, at the next day when the administration is stopped, kill the mouse.
# as §4, §10
# as §6, with “CTX: 20 mg/kg 3.1.4” for “3.1.4”, “on alternate days,” for “a day,”, “4” for “7”, “statistically” for “statisticaly”
smiles,measurement,setting,value
"O=P1(N(CCCl)CCCl)NCCCO1 (stereo not shown) [CTX, endoxan]",The rate of inhibiting tumor (%),[1],64.60%
same,Weight(g) After anministration,"[1]; X ± SD, n = 10",24.3 ± 2.41 g
same,Weight(g) Before anministration,"[1]; X ± SD, n = 10",20.1 ± 1.30 g
same,the weight of tumor,"[1]; X ± SD, n = 10",0.43 ± 0.15 g
same,The rate of inhibiting tumor (%),[2],65.81%
same,Weight(g) After anministration,"[2]; X ± SD, n = 10",24.3 ± 1.68 g
same,Weight(g) Before anministration,"[2]; X ± SD, n = 10",20.1 ± 0.94 g
same,the weight of tumor,"[2]; X ± SD, n = 10",0.51 ± 0.18 g
same,The rate of inhibiting tumor (%),[3],65.81%
same,Weight(g) After anministration,"[3]; X ± SD, n = 10",24.3 ± 1.68 g
same,Weight(g) Before anministration,"[3]; X ± SD, n = 10",20.1 ± 0.94 g
same,the weight of tumor,"[3]; X ± SD, n = 10",0.51 ± 0.18 g
same,The rate of inhibiting tumor (%),[4],64.60%
same,Weight(g) After anministration,"[4]; X ± SD, n = 10",24.3 ± 2.41 g
same,Weight(g) Before anministration,"[4]; X ± SD, n = 10",20.1 ± 1.30 g
same,the weight of tumor,"[4]; X ± SD, n = 10",0.43 ± 0.15 g
